In US8404650B2, “Methods of treating cancer with doxazolidine and prodrugs thereof” (priority 2005, dated 2013):
Where two headings read alike, the source gives them in different places.

Tests used:
[1] = Functional measure of hydrolysis: pre-hydrolysis in RPMI medium or human serum, then growth of MCF-7/Adr cells; type: cell-based; settings: read out by growth of MCF-7/Adr cells; for half-life at 10 µM: RPMI 1640 medium, RPMI 1640, 37° C., estimated from FIG. 5A, read-out: Half-life in cell culture media
Procedure: Hydrolysis of Doxaz or DoxF in RPMI medium was performed by dissociating the cells with trypsin/EDTA, counting and then suspending the cells in growth media to a concentration of 5×10^3 cells/mL. This cell suspension was dispensed in 200 μL aliquots (1000 cells/well) into the inside wells of 96-well tissue culture plates. Plates were then incubated for 24 h at 37° C. in a humidified atmosphere of 5% CO2, and 95% air. The medium was replaced with 180 μL of growth medium prior to addition of the drug. RPMI media (no serum added) was divided into 5 mL aliquots in conical vials and heated to 37° C. in a constant temperature bath. Doxaz and DoxF were dissolved in DMSO at a concentration of 1 mM equivalents. The concentration was then corrected by measuring the solution absorbance at 480 nm (ε=11,500 M^−1 cm^−1). Drug solution (50 μl) was added to an individual conical vial and the drug was allowed to hydrolyze (at 10 μM) for 0, 10, 20, 30, 45, 60, 75 or 90 min. Experiments were performed such that all hydrolysis times would end simultaneously. After hydrolysis, 20 μL of the drug solution was added to a lane of wells on the 96-well plate to give a final concentration of 1 μM equivalents (sum of Doxorubicin, Doxaz and/or DoxF) for treatment of cells. Additionally, two lanes were treated with 20 μL of growth medium containing 1% sterile DMSO for a control. The cells were incubated at 37° C. for 3 h, at which time the drug solutions were replaced with 200 μL of fresh growth media. The cells were then incubated for 5 days, and the extent of colony formation was determined using a crystal violet staining assay measuring optical density at 588 and 770 nm.
Hydrolysis of DoxF in RPMI medium or 100% human serum was performed as described above except drug hydrolysis was performed at 1 μM equivalents and drug treatment was at 100 nM equivalents. During drug treatment, the medium was either 90% RPMI/10% FBS or 90% RPMI/10% human serum. During cell growth, the medium was 90% RPMI/10% FBS. […]

cancer cells = settings: background statement; cited from earlier work
[2] = Hydrolysis of Doxaz to Doxorubicin in buffers (HPLC); type: physicochemical
Procedure: Doxaz stability in DMSO. Doxaz (22 mg, 40 μmol) was dissolve in 1 mL of DMSO-d6 (stored over activated 4 Å molecular sieves) and analyzed for purity by 500 MHz ^1H NMR. After a 10× dilution with DMSO to a concentration of 4 mM, the stability of Doxaz was then followed by HPLC, observing the relative peak area of the Doxaz peak at 6.6 min with constant injection volume. Doxaz hydrolyzed at a rate of <2% per day in DMSO. Doxaz stability in buffers. HPLC buffer, pH 7.4, 20 mM TEAA, was used for the measurement of hydrolysis of Doxaz. The buffer's pH was adjusted as needed with either triethyl amine or acetic acid to pH 10.4, 9.0, 6.0 and 5.0 with one sample left unchanged at pH 7.4. A volume of 1950 μL of each of these solutions was added to a conical vial and then cooled to 14° C. 50 μL of a 4 mM solution of Doxaz was added to each tube and hydrolysis was followed by HPLC with injections every 10 min. The pH of the buffers was measured before the addition of drug and 1.5 h after the start of hydrolysis.
Both DoxF and Doxaz are relatively stable in dry chloroform and dry DMSO over a period of days. In dry DMSO, Doxaz hydrolyzes to Doxorubicin at less than 2% per day at ambient temperature. In aqueous medium, DoxF is very hydrolytically unstable with respect to formation of Doxaz, and Doxaz is hydrolytically unstable with respect to formation of Doxorubicin. […] Consequently, HPLC was used to monitor the kinetics of hydrolysis of Doxaz to Doxorubicin at 14° C. as a function of pH. […] The hydrolysis was too rapid to measure the rate at 37° C. Extrapolation using the rough rule that the rate will double for every 10° C. increase in temperature, gives an estimation of the half-life at pH 7.4 and 37° C. of 3 to 4 min. The rate constant increases with decreasing pH except for the transition from pH 10.4 to pH 9.0 where the rate constant decreases slightly. At pH 10.5 the solution appears purple, indicative of deprotonation at one of the hydroquinone functional groups. […] The higher rate at low pH is consistent with acid catalysis, probably assisting hydrolytic ring opening as the slow step. […]

SMILES	half-life at 1 µM ([1]; 100% human serum, 100% pooled human serum, 37° C., start 100 nM equivalents, estimated from FIG. 5B) [min]	half-life at 10 µM [1] [min]	Anti-tumor activity above Doxorubicin (cancer cells)	half-life at 100 µM ([2]; 20 mM TEAA buffer, pH 7.4, aqueous media, pH 7.4, 37° C., extrapolated from 14° C. (rate doubles per 10° C.), read-out: Half-life for hydrolysis of Doxaz to Doxorubicin at 37° C.) [min]	half-life at 100 µM ([2]; 20 mM TEAA buffer, pH 7.5, pH 7.5, 14° C., 20 mM TEAA buffer, read-out: Half-life for hydrolysis of Doxaz to Doxorubicin at 14° C.) [min]	half-life at 100 µM ([2]; 20 mM triethylammonium acetate (TEAA) buffer, pH 7.4, after prodrug activation near a tumor / in vivo, read-out: Half-life of Doxaz (conversion to Doxorubicin) after release) [min]
COc1cccc2c1C(=O)c1c(O)c3c(c(O)c1C2=O)C[C@@](O)(C(=O)CO)C[C@@H]3OC1CC2C(OCN2CN2COC3C(C)OC(O[C@H]4C[C@](O)(C(=O)CO)Cc5c(O)c6c(c(O)c54)C(=O)c4c(OC)cccc4C6=O)CC32)C(C)O1 (stereo partly shown) [DoxF, Doxoform, reference compound]	~3	~1.5	approximately 100 fold			
COc1cccc2c1C(=O)c1c(O)c3c(c(O)c1C2=O)C[C@@](O)(C(=O)CO)C[C@@H]3O[C@H]1C[C@@H]2NCO[C@@H]2[C@H](C)O1 [Doxaz, Doxazolidine]		~1		3 to 4	16	~3
